Experimental data from ChEMBL document CHEMBL4020788, “Synthesis, SAR and molecular docking studies of benzo[d]thiazole-hydrazones as potential antibacterial and antifungal agents” (2017).
Activity calls are given as the source filed them. No cut-off for these calls is given here.

Legend:
Assay type in all cases: functional
Staphylococcus aureus [1] = assay: Antibacterial activity against methicillin resistant Staphylococcus aureus MRSA090 at 100 ug/ml after 24 hrs by agar well diffusion method; conditions: for zone of inhibition at 100 µg/mL: MRSA090, 24 h, read-out: DIZ
Fusarium oxysporum [2] = assay: Antifungal activity against Fusarium oxysporum at 50 ug/ml after 48 hrs by agar well diffusion method
Aspergillus niger [3] = assay: Antifungal activity against Aspergillus niger at 75 ug/ml after 48 hrs by agar well diffusion method
Staphylococcus aureus [4] = assay: Antibacterial activity against Staphylococcus aureus at 100 ug/ml after 24 hrs by agar well diffusion method
Aspergillus niger [5] = assay: Antifungal activity against Aspergillus niger at 100 ug/ml after 48 hrs by agar well diffusion method
Aspergillus niger [6] = assay: Antifungal activity against Aspergillus niger at 25 ug/ml after 48 hrs by agar well diffusion method
Bacillus subtilis [7] = assay: Antibacterial activity against Bacillus subtilis at 75 ug/ml after 24 hrs by agar well diffusion method; conditions: for zone of inhibition at 75 µg/mL: read-out: DIZ
Fusarium verticillioides [8] = assay: Antifungal activity against Fusarium moniliforme at 25 ug/ml after 48 hrs by agar well diffusion method
Fusarium oxysporum [9] = assay: Antifungal activity against Fusarium oxysporum at 100 ug/ml after 48 hrs by agar well diffusion method
Fusarium verticillioides [10] = assay: Antifungal activity against Fusarium moniliforme at 75 ug/ml after 48 hrs by agar well diffusion method
Staphylococcus aureus [11] = assay: Antibacterial activity against methicillin resistant Staphylococcus aureus MRSA090 at 50 ug/ml after 24 hrs by agar well diffusion method; conditions: for zone of inhibition at 50 µg/mL: MRSA090, 24 h, read-out: DIZ
Staphylococcus aureus [12] = assay: Antibacterial activity against Staphylococcus aureus at 75 ug/ml after 24 hrs by agar well diffusion method
Bacillus subtilis [13] = assay: Antibacterial activity against Bacillus subtilis at 100 ug/ml after 24 hrs by agar well diffusion method; conditions: for zone of inhibition at 100 µg/mL: read-out: DIZ
Staphylococcus aureus [14] = assay: Antibacterial activity against Staphylococcus aureus at 50 ug/ml after 24 hrs by agar well diffusion method
Escherichia coli [15] = assay: Antibacterial activity against Escherichia coli at 100 ug/ml after 24 hrs by agar well diffusion method; conditions: read-out: DIZ
Bacillus subtilis [16] = assay: Antibacterial activity against Bacillus subtilis at 50 ug/ml after 24 hrs by agar well diffusion method; conditions: for zone of inhibition at 50 µg/mL: read-out: DIZ
Aspergillus niger [17] = assay: Antifungal activity against Aspergillus niger at 50 ug/ml after 48 hrs by agar well diffusion method
Escherichia coli [18] = assay: Antibacterial activity against Escherichia coli at 50 ug/ml after 24 hrs by agar well diffusion method; conditions: read-out: DIZ
Fusarium oxysporum [19] = assay: Antifungal activity against Fusarium oxysporum at 75 ug/ml after 48 hrs by agar well diffusion method
Fusarium oxysporum [20] = assay: Antifungal activity against Fusarium oxysporum at 25 ug/ml after 48 hrs by agar well diffusion method
Escherichia coli [21] = assay: Antibacterial activity against Escherichia coli at 75 ug/ml after 24 hrs by agar well diffusion method; conditions: read-out: DIZ
Klebsiella pneumoniae [22] = assay: Antibacterial activity against Klebsiella pneumoniae at 75 ug/ml after 24 hrs by agar well diffusion method; conditions: read-out: DIZ
Escherichia coli [23] = assay: Antibacterial activity against Escherichia coli at 25 ug/ml after 24 hrs by agar well diffusion method; conditions: read-out: DIZ
Staphylococcus aureus [24] = assay: Antibacterial activity against methicillin resistant Staphylococcus aureus MRSA090 at 75 ug/ml after 24 hrs by agar well diffusion method; conditions: for zone of inhibition at 75 µg/mL: MRSA090, 24 h, read-out: DIZ
Fusarium verticillioides [25] = assay: Antifungal activity against Fusarium moniliforme at 100 ug/ml after 48 hrs by agar well diffusion method
Klebsiella pneumoniae [26] = assay: Antibacterial activity against Klebsiella pneumoniae at 50 ug/ml after 24 hrs by agar well diffusion method
Klebsiella pneumoniae [27] = assay: Antibacterial activity against Klebsiella pneumoniae at 100 ug/ml after 24 hrs by agar well diffusion method; conditions: read-out: DIZ
Bacillus subtilis [28] = assay: Antibacterial activity against Bacillus subtilis at 25 ug/ml after 24 hrs by agar well diffusion method; conditions: for zone of inhibition at 25 µg/mL: read-out: DIZ
Staphylococcus aureus [29] = assay: Antibacterial activity against Staphylococcus aureus at 25 ug/ml after 24 hrs by agar well diffusion method
Klebsiella pneumoniae [30] = assay: Antibacterial activity against Klebsiella pneumoniae at 25 ug/ml after 24 hrs by agar well diffusion method
Fusarium verticillioides [31] = assay: Antifungal activity against Fusarium moniliforme at 50 ug/ml after 48 hrs by agar well diffusion method
Staphylococcus aureus [32] = assay: Antibacterial activity against methicillin resistant Staphylococcus aureus MRSA090 at 25 ug/ml after 24 hrs by agar well diffusion method; conditions: for zone of inhibition at 25 µg/mL: MRSA090, 24 h, read-out: DIZ

Row | Compound | diameter of the inhibition zone (DIZ) (Aspergillus niger [3]) | diameter of the inhibition zone (DIZ) (Staphylococcus aureus [4]) | diameter of the inhibition zone (DIZ) (Aspergillus niger [5]) | diameter of the inhibition zone (DIZ) (Aspergillus niger [6]) | zone of inhibition at 75 µg/mL (Bacillus subtilis [7]) | diameter of the inhibition zone (DIZ) (Fusarium verticillioides [8]) | diameter of the inhibition zone (DIZ) (Fusarium verticillioides [10]) | diameter of the inhibition zone (DIZ) (Staphylococcus aureus [12]) | zone of inhibition at 100 µg/mL (Bacillus subtilis [13]) | diameter of the inhibition zone (DIZ) (Staphylococcus aureus [14]) | zone of inhibition at 100 µg/mL (Escherichia coli [15]) | zone of inhibition at 50 µg/mL (Bacillus subtilis [16]) | zone of inhibition at 50 µg/mL (Escherichia coli [18]) | zone of inhibition at 75 µg/mL (Escherichia coli [21]) | zone of inhibition at 75 µg/mL (Klebsiella pneumoniae [22]) | zone of inhibition at 25 µg/mL (Escherichia coli [23]) | diameter of the inhibition zone (DIZ) (Fusarium verticillioides [25]) | zone of inhibition at 100 µg/mL (Klebsiella pneumoniae [27]) | diameter of the inhibition zone (DIZ) (Staphylococcus aureus [29]) | diameter of the inhibition zone (DIZ) (Fusarium verticillioides [31]) | further results
1 | Cc1cccc2nc(N/N=C/c3ccccc3)sc12 | inactive | inactive | inactive | inactive | 11 mm | inactive | inactive | inactive | 13 mm | inactive | 15 mm | 7 mm | 11 mm | 13 mm | 7 mm | 9 mm | inactive | 10 mm | inactive | inactive | diameter of the inhibition zone (DIZ) (Staphylococcus aureus [1]): inactive; zone of inhibition at 50 µg/mL (Fusarium oxysporum [2]; read-out: DIZ): 8 mm; zone of inhibition at 100 µg/mL (Fusarium oxysporum [9]; read-out: DIZ): 16 mm; diameter of the inhibition zone (DIZ) (Staphylococcus aureus [11]): inactive; diameter of the inhibition zone (DIZ) (Aspergillus niger [17]): inactive; zone of inhibition at 75 µg/mL (Fusarium oxysporum [19]; read-out: DIZ): 13 mm; zone of inhibition at 25 µg/mL (Fusarium oxysporum [20]; read-out: DIZ): 4 mm; diameter of the inhibition zone (DIZ) (Staphylococcus aureus [24]): inactive; diameter of the inhibition zone (DIZ) (Klebsiella pneumoniae [26]): inactive; zone of inhibition at 25 µg/mL (Bacillus subtilis [28]): 5 mm; diameter of the inhibition zone (DIZ) (Klebsiella pneumoniae [30]): inactive; diameter of the inhibition zone (DIZ) (Staphylococcus aureus [32]): inactive
2 | Cc1cccc2nc(N/N=C/c3ccncc3)sc12 | – | inactive | – | – | – | inactive | inactive | inactive | – | inactive | 19 mm | – | 14 mm | 16 mm | 14 mm | 7 mm | inactive | 18 mm | inactive | inactive | zone of inhibition at 100 µg/mL (Staphylococcus aureus [1]): 17 mm; diameter of the inhibition zone (DIZ) (Fusarium oxysporum [2]): inactive; zone of inhibition at 75 µg/mL (Aspergillus niger [3]; read-out: DIZ): 13 mm; zone of inhibition at 100 µg/mL (Aspergillus niger [5]; read-out: DIZ): 16 mm; zone of inhibition at 25 µg/mL (Aspergillus niger [6]; read-out: DIZ): 6 mm; diameter of the inhibition zone (DIZ) (Bacillus subtilis [7]): inactive; diameter of the inhibition zone (DIZ) (Fusarium oxysporum [9]): inactive; zone of inhibition at 50 µg/mL (Staphylococcus aureus [11]): 10 mm; diameter of the inhibition zone (DIZ) (Bacillus subtilis [13]): inactive; diameter of the inhibition zone (DIZ) (Bacillus subtilis [16]): inactive; zone of inhibition at 50 µg/mL (Aspergillus niger [17]; read-out: DIZ): 11 mm; diameter of the inhibition zone (DIZ) (Fusarium oxysporum [19]): inactive; diameter of the inhibition zone (DIZ) (Fusarium oxysporum [20]): inactive; zone of inhibition at 75 µg/mL (Staphylococcus aureus [24]): 14 mm; zone of inhibition at 50 µg/mL (Klebsiella pneumoniae [26]; read-out: DIZ): 9 mm; diameter of the inhibition zone (DIZ) (Bacillus subtilis [28]): inactive; zone of inhibition at 25 µg/mL (Klebsiella pneumoniae [30]; read-out: DIZ): 5 mm; zone of inhibition at 25 µg/mL (Staphylococcus aureus [32]): 7 mm
3 | Cc1cccc2nc(N/N=C/c3ccc(O)cc3Br)sc12 | inactive | inactive | inactive | inactive | 13 mm | inactive | inactive | inactive | 15 mm | inactive | 16 mm | 11 mm | 9 mm | 11 mm | 11 mm | 6 mm | inactive | 14 mm | inactive | inactive | zone of inhibition at 100 µg/mL (Staphylococcus aureus [1]): 17 mm; diameter of the inhibition zone (DIZ) (Fusarium oxysporum [2]): inactive; diameter of the inhibition zone (DIZ) (Fusarium oxysporum [9]): inactive; zone of inhibition at 50 µg/mL (Staphylococcus aureus [11]): 11 mm; diameter of the inhibition zone (DIZ) (Aspergillus niger [17]): inactive; diameter of the inhibition zone (DIZ) (Fusarium oxysporum [19]): inactive; diameter of the inhibition zone (DIZ) (Fusarium oxysporum [20]): inactive; zone of inhibition at 75 µg/mL (Staphylococcus aureus [24]): 14 mm; diameter of the inhibition zone (DIZ) (Klebsiella pneumoniae [26]): inactive; zone of inhibition at 25 µg/mL (Bacillus subtilis [28]): 7 mm; diameter of the inhibition zone (DIZ) (Klebsiella pneumoniae [30]): inactive; zone of inhibition at 25 µg/mL (Staphylococcus aureus [32]): 7 mm
